These results are taken from patent US11339144B2 (Navitor Pharmaceuticals, Inc., priority 2017, dated 2022).

Each structure is given as a SMILES string.

As usually defined, the IC50 is the concentration that gives 50% inhibition.

Experiment [1] addresses HA-GST-Rheb (GTP-γ-S loaded) activating mTORC1 (Homo sapiens (Human), UniProt Q15382). The experiment can be described thus: Rheb-dependent in vitro kinase assay (Rheb-IVK; LanthaScreen or Western readout). To be noted: Rheb-dependent in vitro kinase assay; read-out: IVK IC50. The format is biochemical. (In general: Time-resolved FRET reads energy transfer from a long-lived donor to a nearby acceptor.)

The target of another experiment is Rheb (Homo sapiens (Human), UniProt Q15382). Put plainly: Affinity Selection Mass Spectrometry (ASMS). To be noted: affinity (R3/R0) in Affinity Selection Mass Spectrometry assay. The format is binding. An outline of the steps: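 Human Rheb (60 μM) with GDP (180 μM) and each compound at 2 μM, protein-plus versus protein-minus, incubated 30 min at room temperature, then washed by 10 kDa ultrafiltration. Retained ligand was released with MeCN and detected by UPLC-Q-TOF MS.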
Rheb, sequence (Q15382 1-169 limits assumed): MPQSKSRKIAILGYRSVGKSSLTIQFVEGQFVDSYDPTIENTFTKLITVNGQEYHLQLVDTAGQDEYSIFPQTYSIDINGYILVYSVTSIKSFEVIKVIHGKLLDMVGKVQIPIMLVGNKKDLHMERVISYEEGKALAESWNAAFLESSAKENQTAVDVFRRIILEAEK

HA-GST-Rheb (GTP-γ-S loaded) activating mTORC1, sequence (Q15382 1-181): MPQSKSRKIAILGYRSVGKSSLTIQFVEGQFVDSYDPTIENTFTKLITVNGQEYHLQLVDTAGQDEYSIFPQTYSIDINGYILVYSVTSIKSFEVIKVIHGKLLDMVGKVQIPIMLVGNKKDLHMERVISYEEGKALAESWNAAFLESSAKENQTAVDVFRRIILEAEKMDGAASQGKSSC

For the molecule `OCc1nc2cc(OCc3ccccc3F)c(Cl)cc2[nH]1` [I-481], the IC50 in experiment [1] was greater than 100 µM. Moreover, at Rheb, the “ASMS (R3/R0)” value is recorded as “C (an affinity (R3/R0)<20%)”.
On to `Clc1cc(Oc2ccccc2Cl)c2cc[nH]c2c1` [I-202, 6-chloro-4-(2-chlorophenoxy)-1H-indole], for which, in experiment [1], the IC50 fell in the range of 10 to 100 µM. Further, at Rheb, the “ASMS (R3/R0)” value is “B (an affinity (R3/R0) between 100% and 20%)”.
`O=C(O)c1cc2c(Sc3ccc(F)cc3)cc(Cl)cc2[nH]1` [I-156, 6-chloro-4-(4-fluorophenylthio)-1H-indole-2-carboxylic acid]: in experiment [1], the IC50 was 10 to 100 µM. Besides, at Rheb, the “ASMS (R3/R0)” value is “B (an affinity (R3/R0) between 100% and 20%)”.
Regarding `O=C(O)c1cc2c(Br)cc(Sc3ccc(Cl)c(Cl)c3)cc2[nH]1` [I-139, 4-bromo-6-(3,4-dichlorophenylthio)-1H-indole-2-carboxylic acid], in experiment [1], the IC50 is less than 10 µM. On Rheb, the “ASMS (R3/R0)” value was “B (an affinity (R3/R0) between 100% and 20%)”.
Take `OCc1cc2ccc(Sc3ccc(Cl)cc3)cc2n1Cc1nc[nH]n1` [I-185]: the IC50 in experiment [1] was greater than 100 µM. Besides, the “ASMS (R3/R0)” value at Rheb is given as “C (an affinity (R3/R0)<20%)”.
Taken in the same sequence, the figures for `O=C(O)c1cc2c(Cl)cc(-c3ccccc3)cc2[nH]1` [I-48, 4-chloro-6-phenyl-1H-indole-2-carboxylic acid] were 10 to 100 µM and “C (an affinity (R3/R0)<20%)”.
On to `Cc1cc(Sc2ccc(Cl)cc2)c2cc(C(=O)O)[nH]c2c1C` [I-58, 4-(4-chlorophenylthio)-6,7-dimethyl-1H-indole-2-carboxylic acid], for which the IC50 in experiment [1] was in the range of 10 to 100 µM. The “ASMS (R3/R0)” value at Rheb was “B (an affinity (R3/R0) between 100% and 20%)”.
With `O=C(O)c1nc2c(OCC3CCCCC3)c(Cl)c(Cl)cc2[nH]1` [I-342, 5,6-dichloro-4-(cyclohexylmethoxy)-1H-benzo[d]imidazole-2-carboxylic acid], the IC50 in experiment [1] was 10 to 100 µM. In addition, the “ASMS (R3/R0)” value at Rheb is “B (an affinity (R3/R0) between 100% and 20%)”.
As to `OCc1cc2c(Oc3cccc(Cl)c3)cc(Cl)cc2[nH]1` [I-215, (6-chloro-4-(3-chlorophenoxy)-1H-indol-2-yl)methanol], the IC50 in experiment [1] was in the range of 10 to 100 µM. Further, the “ASMS (R3/R0)” value at Rheb was “B (an affinity (R3/R0) between 100% and 20%)”.
In the case of `CN(C)C(=O)c1ccc(Cn2c(C(=O)O)cc3c(-c4ccccc4)cc(Sc4ccc(Cl)c(Cl)c4)cc32)cc1` [I-8, 6-(3,4-dichlorophenylthio)-1-(4-(dimethylcarbamoyl)benzyl)-4-phenyl-1H-indole-2-carboxylic acid], the IC50 in experiment [1] was less than 10 µM. In addition, on Rheb, the “ASMS (R3/R0)” value is reported as “A (an affinity (R3/R0)>100%)”.
For the molecule `N#Cc1ccc(-c2nc3cc(Cl)c(Cl)cc3[nH]2)cc1` [I-370, 4-(5,6-dichloro-1H-benzo[d]imidazol-2-yl)benzonitrile], the IC50 in experiment [1] lay within 10 to 100 µM. Besides, the “ASMS (R3/R0)” value on Rheb is “B (an affinity (R3/R0) between 100% and 20%)”.
As for `CN1CCN(C(=O)c2cc3c(Sc4ccc(Cl)cc4)cc(Cl)cc3[nH]2)CC1` [I-90], in experiment [1], the IC50 was greater than 100 µM. The “ASMS (R3/R0)” value on Rheb is “B (an affinity (R3/R0) between 100% and 20%)”.
`COC(=O)c1cc2c(Sc3ccc(Br)cc3)cc(Cl)cc2[nH]1` [I-99]: the IC50 in experiment [1] was greater than 100 µM. Besides, the “ASMS (R3/R0)” value at Rheb was “B (an affinity (R3/R0) between 100% and 20%)”.
As for `O=C(O)c1ccc(CCn2c(-c3ccnc4[nH]ccc34)nc3cc(Cl)c(Cl)cc32)cc1` [I-331, 4-(2-(5,6-dichloro-2-(1H-pyrrolo[2,3-b]pyridin-4-yl)-1H-benzo[d]imidazol-1-yl)ethyl)benzoic acid], the IC50 in experiment [1] fell in the range of 10 to 100 µM. Further, on Rheb, the “ASMS (R3/R0)” value is “B (an affinity (R3/R0) between 100% and 20%)”.
In the case of `CC(O)c1cc2c(Br)cc(Oc3ccccc3)cc2[nH]1` (stereo not shown) [I-218, 1-(4-bromo-6-phenoxy-1H-indol-2-yl)ethanol], the IC50 in experiment [1] is 10 to 100 µM. Moreover, the “ASMS (R3/R0)” value at Rheb was “B (an affinity (R3/R0) between 100% and 20%)”.
As for `CN(C)Cc1cc2c(Br)cc(Sc3ccc(Cl)c(Cl)c3)cc2n1Cc1ccc(C(=O)N(C)C)cc1` [I-39], the IC50 in experiment [1] was greater than 100 µM. Moreover, the “ASMS (R3/R0)” value on Rheb is “B (an affinity (R3/R0) between 100% and 20%)”.
For `Cn1ccc2c(OC3CCNCC3)cccc21` [I-295], in experiment [1], the IC50 was greater than 100 µM. Moreover, the “ASMS (R3/R0)” value on Rheb is listed as “C (an affinity (R3/R0)<20%)”.
Taken in the same sequence, the figures for `O=C1CCc2ccc(Oc3cc(Cl)cc4[nH]c(CO)cc34)cc2N1` [I-59] were greater than 100 µM and “C (an affinity (R3/R0)<20%)”.
On to `COc1ccc(Sc2cc(Cl)cc3[nH]c(CO)cc23)cc1OC` [I-135], for which the IC50 in experiment [1] is greater than 100 µM. In addition, the “ASMS (R3/R0)” value on Rheb is “B (an affinity (R3/R0) between 100% and 20%)”.
In the case of `OCc1cc2c(Br)cc(Sc3ccccc3)cc2[nH]1` [I-237, (4-bromo-6-(phenylthio)-1H-indol-2-yl)methanol], in experiment [1], the IC50 was in the range of 10 to 100 µM. Also, the “ASMS (R3/R0)” value on Rheb is “B (an affinity (R3/R0) between 100% and 20%)”.
As for `OCc1cc2c(Br)cc(SCc3ccc(Cl)cc3)cc2[nH]1` [I-145, (4-bromo-6-(4-chlorobenzylthio)-1H-indol-2-yl)methanol], the IC50 in experiment [1] was 10 to 100 µM. Besides, the “ASMS (R3/R0)” value on Rheb is “B (an affinity (R3/R0) between 100% and 20%)”.
As to `c1ccc(Oc2cccc3[nH]ccc23)cc1` [I-296, 4-phenoxy-1H-indole], the IC50 in experiment [1] was 100 to 300 µM. Further, at Rheb, the “ASMS (R3/R0)” value is listed as “C (an affinity (R3/R0)<20%)”.
Taken in the same sequence, the figures for `CC(C)(C)OC(=O)c1ccc(Cn2c(CO)cc3c(Br)cc(Oc4ccccc4)cc32)cc1` [I-151] were greater than 100 µM and “C (an affinity (R3/R0)<20%)”.
`OCc1cc(Sc2ccc(Cl)cc2)c2cc[nH]c2c1` [I-198, (4-(4-chlorophenylthio)-1H-indol-6-yl)methanol]: in experiment [1], the IC50 was 10 to 100 µM. Also, on Rheb, the “ASMS (R3/R0)” value was “B (an affinity (R3/R0) between 100% and 20%)”.
Regarding `O=C(O)c1ccc(Cn2c(-c3ccncc3)nc3cc(Cl)c(Cl)cc32)cc1` [I-365, 4-((5,6-dichloro-2-(pyridin-4-yl)-1H-benzo[d]imidazol-1-yl)methyl)benzoic acid], the 50% inhibitory concentration (IC50) in experiment [1] was in the range of 10 to 100 µM. Besides, on Rheb, the “ASMS (R3/R0)” value is recorded as “C (an affinity (R3/R0)<20%)”.
With `COc1cccc(CCNC(=O)c2cc3c(Sc4ccc(Cl)cc4)cc(Cl)cc3[nH]2)c1` [I-144], the IC50 in experiment [1] was greater than 100 µM. Further, at Rheb, the “ASMS (R3/R0)” value is “B (an affinity (R3/R0) between 100% and 20%)”.
As for `CN1CCN(C(=O)Cc2nc3cc(Cl)c(OCc4ccc(Cl)cc4)cc3[nH]2)CC1` [I-332, 2-[5-chloro-6-[(4-chlorophenyl)methoxy]-1H-benzimidazol-2-yl]-1-(4-methylpiperazin-1-yl)ethanone], in experiment [1], the IC50 lay within 10 to 100 µM. The “ASMS (R3/R0)” value on Rheb is given as “A (an affinity (R3/R0)>100%)”.
Regarding `OCc1nc2cc(OCc3cccc(F)c3)c(Cl)cc2[nH]1` [I-484, (6-chloro-5-(3-fluorobenzyloxy)-1H-benzo[d]imidazol-2-yl)methanol], the IC50 in experiment [1] lay in the range of 100 to 300 µM. For the same molecule, the “ASMS (R3/R0)” value at Rheb is “B (an affinity (R3/R0) between 100% and 20%)”.
With `Clc1cc2nc(-c3ccnc(N4CCNCC4)c3)[nH]c2cc1Cl` [I-346], the IC50 in experiment [1] is greater than 100 µM. Also, the “ASMS (R3/R0)” value on Rheb was “A (an affinity (R3/R0)>100%)”.
Taken in the same sequence, the figures for `CN(C)C(=O)c1ccc(Cn2c(C(=O)O)cc3c(Br)cc(Sc4cccc(OC(F)(F)F)c4)cc32)cc1` [I-20, 4-bromo-1-(4-(dimethylcarbamoyl)benzyl)-6-(3-(trifluoromethoxy)phenylthio)-1H-indole-2-carboxylic acid] were less than 10 µM and “A (an affinity (R3/R0)>100%)”.
As for `CC(C)(C)c1cccc(Sc2cc(Cl)cc3[nH]c(C(=O)O)cc23)c1` [I-65, 4-(3-tert-butylphenylthio)-6-chloro-1H-indole-2-carboxylic acid], the IC50 in experiment [1] was less than 10 µM. Besides, the “ASMS (R3/R0)” value on Rheb was “B (an affinity (R3/R0) between 100% and 20%)”.
On to `Clc1ccc(Oc2cccc3[nH]ccc23)c(Cl)c1` [I-255, 4-(2,4-Dichlorophenoxy)-1H-indole], for which, in experiment [1], the IC50 was in the range of 10 to 100 µM. Besides, on Rheb, the “ASMS (R3/R0)” value was “B (an affinity (R3/R0) between 100% and 20%)”.
Regarding `Nc1ccc(N2CCN(C(=O)c3cc4c(Sc5ccc(Cl)cc5Cl)cc(Cl)cc4[nH]3)CC2)cc1F` [I-92, (4-(4-amino-3-fluorophenyl)piperazin-1-yl)(6-chloro-4-(2,4-dichlorophenylthio)-1H-indol-2-yl)methanone], in experiment [1], the IC50 fell in the range of 10 to 100 µM. Besides, the “ASMS (R3/R0)” value on Rheb was “B (an affinity (R3/R0) between 100% and 20%)”.
In the case of `O=C(O)Cn1ccc2c(Oc3cc(Cl)ccc3Cl)cc(Cl)cc21` [I-158, 2-(6-Chloro-4-(2,5-dichlorophenoxy)-1H-indol-1-yl)acetic acid], the IC50 in experiment [1] is 10 to 100 µM. For the same molecule, the “ASMS (R3/R0)” value on Rheb is “B (an affinity (R3/R0) between 100% and 20%)”.
With `CN1CCC(CCNC(=O)c2cc3c(Br)cc(Sc4ccc(Cl)c(Cl)c4)cc3n2Cc2ccc(C(=O)OC(C)(C)C)cc2)CC1` [I-110], the IC50 in experiment [1] is greater than 100 µM. Besides, the “ASMS (R3/R0)” value at Rheb was “C (an affinity (R3/R0)<20%)”.
For `CN1CCCN(c2ccc(NC(=O)c3cc4c(Sc5ccc(Cl)cc5Cl)cc(Cl)cc4[nH]3)cc2F)CC1` [I-93, 6-chloro-4-(2,4-dichlorophenylthio)-N-(3-fluoro-4-(4-methyl-1,4-diazepan-1-yl)phenyl)-1H-indole-2-carboxamide], the IC50 in experiment [1] is less than 10 µM. Moreover, at Rheb, the “ASMS (R3/R0)” value is on record as “A (an affinity (R3/R0)>100%)”.
Taken in the same sequence, the figures for `CN1CCCN(c2ccc(NC(=O)c3cc4c(Sc5ccc(Cl)cc5Cl)cc(Cl)c(Cl)c4[nH]3)cc2F)CC1` [I-32, 6,7-dichloro-4-(2,4-dichlorophenyl)sulfanyl-N-[3-fluoro-4-(4-methyl-1,4-diazepan-1-yl)phenyl]-1H-indole-2-carboxamide] were less than 10 µM and “A (an affinity (R3/R0)>100%)”.
For the molecule `OCc1cc2c(Oc3ccccc3)c(Cl)c(Cl)cc2[nH]1` [I-250, (5,6-Dichloro-4-phenoxy-1H-indol-2-yl)methanol], the IC50 in experiment [1] was in the range of 10 to 100 µM. Moreover, the “ASMS (R3/R0)” value on Rheb was “B (an affinity (R3/R0) between 100% and 20%)”.
